Experimental findings from US6323235A, “Benzene-condensed heterocyclic derivatives and their uses” (priority 1995, dated 2001) are described below.

For experiment [1], the system named is platelet aggregation induced by TXA2 agonist U-46619. Briefly: Platelet Aggregation-inhibition Action 1 (U-46619-induced, platelet-rich plasma). In kind it is cell-based. The note with it: U-46619 1-4 μM final, PRP, compound added one minute before U-46619. The procedure:
Platelet Aggregation-inhibition Action 1
(§1) Blood collected from medial cubital vein is centrifuged at 800 rmp for 10 minutes and the upper portion of the resultant is collected as platelet-rich plasma (PRP). The PRP is dividedly poured into small test tubes and a TXA2 agonist U-46619 is added thereto (final concentration: 1-4 μM) so as to induce platelet aggregation. The degree of platelet aggregation is measured in terms of change in turbidity by a platelet aggregation measuring apparatus (Hematoracer, NIKO BIOSCIENCE). The compound is added one minute before the addition of U-46619 and the concentration of the compound at which the aggregation is inhibited by 50% is calculated as IC50 value.

Experiment [2] has as its system platelet aggregation induced by ADP. Briefly: Platelet Aggregation-Inhibition Action 2 (ADP-induced, platelet-rich plasma). In kind it is cell-based. Conditions: ADP 1-3 μM final, PRP, compound added one minute before ADP. How it is done: Platelet Aggregation-Inhibition Action 2
as §1, with “PRP).” for “(PRP).”, “ADP” for “a TXA2 agonist U-46619”, “1-3” for “1-4”, “Hematoracer,” for “(Hematoracer,”, “ADP” for “U-46619 and”

Another experiment has as its target T1, TXA2 receptor (Oryctolagus cuniculus, UniProt Q6WQI8).
T1 sequence (Q6WQI8 1-233): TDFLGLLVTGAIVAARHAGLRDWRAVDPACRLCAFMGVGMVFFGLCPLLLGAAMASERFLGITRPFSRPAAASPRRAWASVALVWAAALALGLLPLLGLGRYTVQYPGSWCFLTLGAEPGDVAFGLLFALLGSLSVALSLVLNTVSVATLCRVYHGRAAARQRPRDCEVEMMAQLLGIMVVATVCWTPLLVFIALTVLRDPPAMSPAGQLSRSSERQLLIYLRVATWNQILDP
The experiment can be described thus: TXA2 Receptor Binding Test 1 ([3H]SQ29548, washed rabbit platelets). Conditions: [3H]SQ29548 3 nM, rabbit washed platelets 10 mg/ml, 25° C., 60 minutes. More on the design: species or system New Zealand White rabbit. The procedure:
TXA2 Receptor Binding Test 1
Blood from a New Zealand White rabbit is taken in a vessel containing ACD solution (prepared by dissolving 1.175 g of sodium citrate, 0.685 g of citric acid and 1 g of dextrose in 50 ml of distilled water) and centrifuged at 180×g for 10 minutes at room temperature to obtain platelet-rich plasma. The obtained platelet-rich plasma is centrifuged at […] at room temperature to precipitate platelets. The platelets are then suspended in 50 mM Tris-HCl buffer (pH 7.2, containing 0.154M of NaCl) and the suspension is centrifuged at 2800×g for 15 minutes at 4° C. These operations are repeated twice to prepare washed platelets and the concentration of the platelets are adjusted to a final concentration of 10 mg/ml (wet weight).
As the ligand of TXA2, tritium-labelled SQ29548 ([^3 H]SQ29548) is used. In the antagonism test, 20 μl of [^3 H]SQ29548 having a final concentration of 3 nM is added to 500 μl of a platelet suspension having a platelet concentration of 10 mg/ml and 2.6 μl of a solution of a test compound dissolved in an appropriate solvent is added thereto. After incubating the resulting mixture at 25° C. for 60 minutes, the mixture is filtered through a glass filter by the cell harvester method. After washing the filter with 50 mM Tris-HCl buffer (3×4 ml), the radioactivity of the filter is measured by a scintillation counter, thereby measuring the amount of the [^3 H]SQ29548 bound to platelets. In the saturation test, 20 μl of [^3 H]SQ29548 is added to a final concentration of 0.1-50 nM and 2.6 μl of BM13505 having a final concentration of 1 μM is added so as to check non-specific binding, followed by carrying out the binding test. The concentration of the test compound at which binding of [^3 H]SQ29548 is inhibited by 50% is determined as the IC50 value.
The results of the evaluation of the activities of the compounds of the present invention by this method are summarized d in Table 3.

Regarding `O=C(O)COc1cccc2c(CCSC(c3ccccc3)c3ccccc3)c(CCO)oc12` [Example 85], the IC50 in experiment [1] was 620 nM; in experiment [2], 750 nM. Take `O=C(O)COc1cccc2c(CCOC(c3ccccc3)c3ccccc3)coc12` [Example 43, (3-(2-(diphenylmethoxy)ethyl)benzofuran-7-yloxy)acetate]: the half-inhibitory concentration (IC50) in experiment [1] was 4000 nM; on TXA2 receptor it was 69.6 nM.

As for `O=C(O)COc1cccc2c(CNS(=O)(=O)CCc3ccccc3)coc12` [Example 8, (3-(((2-phenylethyl)sulfonylamino)methyl)benzofuran-7-yloxy)acetic acid], the half-maximal inhibitory concentration (IC50) in experiment [1] turned out to be 1000 nM; in experiment [2], 305000 nM.

Turning to `O=C(O)COc1cccc2c(COCCOC(c3ccccc3)c3ccccc3)coc12` [Example 59, (3-((2-(diphenylmethoxy)ethoxy)methyl)benzofuran-7-yloxy)acetic acid], the IC50 in experiment [1] came to 330 nM; in experiment [2] it was 600 nM.

As for `O=C(O)COc1cccc2c1CCN2CCOCC(c1ccccc1)c1ccccc1` [Example 122, (1-(2-(2,2-diphenylethoxy)ethyl)indoline-4-yloxy)acetic acid], the values for the IC50 in experiment [1] and in experiment [2] were 1400 nM and 2700 nM, respectively. `O=C(O)COc1cccc2cc(COCCOC(c3ccccc3)c3ccccc3)oc12` [Example 130, (2-(2-diphenylmethoxyethoxymethyl)benzofuran-7-yloxy)acetic acid] yielded an IC50 in experiment [1] of 18000 nM. This lies in the double-digit micromolar range. `Cc1ccc(S(=O)(=O)NCCn2ccc3c(OCC(=O)O)cccc32)cc1` [Example 103]: the IC50 in experiment [1] is 1300 nM; at TXA2 receptor, 3.09 nM. The corresponding values for `O=C(O)COc1cccc2c(CNS(=O)(=O)CCCc3ccccc3)coc12` [Example 9, (3-((3-phenylpropylsulfonylamino)methyl)benzofuran-7-yloxy)acetic acid] are 300 nM and 4.46 nM.

In turn, `O=C(O)COc1cccc2c(COCC=C(c3ccccc3)c3ccccc3)coc12` [Example 94, (3-((3,3-diphenyl-2-propenyloxy)methyl)benzofuran-7-yloxy)acetic acid] registered an IC50 in experiment [1] of 710 nM. In other words, the sub-micromolar range.

On to `O=C(O)COc1cccc2c1ccn2CCNS(=O)(=O)c1ccccc1` [Example 104, (1-(2-(phenylsulfonylamino)ethyl)indole-4-yloxy)acetic acid], for which the results for the IC50 (in experiment [1]; at TXA2 receptor) were 5100 nM and 26.7 nM, respectively. With `O=C(O)COc1cccc2c1ccn2CCOCC(c1ccccc1)c1ccccc1` [Example 109, (1-(2-(2,2-diphenylethoxy)ethyl)indole-4-yloxy)acetic acid], the IC50 in experiment [2] was determined as 27900 nM. With `O=C(O)COc1cccc2c(CC(O)CCC(c3ccccc3)c3ccccc3)coc12` (centres unmarked) [Example 101, (3-(2-hydroxy-5,5-diphenylpentyl)benzofuran-7-yloxy)acetic acid], the 50% inhibitory concentration (IC50) in experiment [1] was determined as 1500 nM; in experiment [2] it was 1800 nM. The matching figures for `O=C(O)COc1cccc2c1CCN2CCSC(c1ccccc1)c1ccccc1` [Example 125, (1-(2-(diphenylmethylthio)ethyl)indoline-4-yloxy)acetic acid]: 720 nM and 3100 nM. At TXA2 receptor, `C[C@@H](COCc1coc2c(OCC(=O)O)cccc12)c1ccccc1` [Example 51, (R)-(3-((2-phenylpropyloxy)methyl)benzofuran-7-yloxy)acetic acid] gave an IC50 of 229 nM.

Compound `O=C(O)COc1cccc2c(COC(Cc3ccccc3)Cc3ccccc3)coc12` [Example 53, (3-((1-benzyl-2-phenylethoxy)methyl)benzofuran-7-yloxy)acetic acid] showed an IC50 on TXA2 receptor of 2020 nM. This IC50 lies about 8.8-fold higher than the previous one. In the case of `C[C@H](COC(c1ccccc1)c1ccccc1)OCc1coc2c(OCC(=O)O)cccc12` [Example 97, (R)-(3-((2-(diphenylmethoxy)-1-methylethoxy)methyl)benzofuran-7-yloxy)acetic acid], the IC50 in experiment [1] is 1600 nM; in experiment [2] it was 3400 nM. Turning to `O=C(O)COc1cccc2c(CCCSC(c3ccccc3)c3ccccc3)coc12` [Example 91, (3-(3,3-diphenylmethylthiopropyl)benzofuran-7-yloxy)acetic acid], the IC50 in experiment [2] turned out to be 1900 nM. `O=C(O)COc1cccc2c(CCOCc3ccc(-c4ccccc4)cc3)coc12` [Example 46, (3-(2-(4-phenylbenzyloxy)ethyl)benzofuran-7-yloxy)acetic acid]: the IC50 on TXA2 receptor is 596 nM. This lies in the sub-micromolar range. As to `O=C(O)COc1cccc2c(CNS(=O)(=O)CCOc3ccccc3)coc12` [Example 4], the IC50 in experiment [1] is 1100 nM. Compound `O=C(O)COc1cccc2c(COCC(c3ccccc3)c3ccccc3)coc12` [Example 49, (3-((2,2-diphenylethoxy)methyl)benzofuran-7-yloxy)acetic acid] registered a 50% inhibitory concentration (IC50) in experiment [2] of 8200 nM. Turning to `O=C(O)COc1cccc2c(CCSCC(c3ccccc3)c3ccccc3)coc12` [Example 88, (3-(2-(2,2-diphenylethylthio)ethyl)benzofuran-7-yloxy)acetic acid], the results for the IC50 in experiment [1] and in experiment [2] were 510 nM and 730 nM, respectively. With `O=C(O)COc1cccc2c(CNS(=O)(=O)c3ccc4ccccc4c3)coc12` [Example 13], the results for the half-maximal inhibitory concentration (IC50) (in experiment [1]; at TXA2 receptor) were 7200 nM and 29.2 nM, respectively.

On to `O=C(O)COc1cccc2c(CCOCC(=O)c3ccccc3)coc12` [Example 47, (3-(2-(2-oxo-2-phenylethoxy)ethyl)benzofuran-7-yloxy)acetic acid], for which the IC50 on TXA2 receptor was 3670 nM. This counts as single-digit micromolar. Take `Cc1oc2c(OCC(=O)O)cccc2c1CCNS(=O)(=O)Cc1ccccc1` [Example 24, (3-(2-(benzylsulfonylamino)ethyl)-2-methylbenzofuran-7-yloxy)acetic acid]: the figures for the concentration for half-maximal inhibition (IC50) (in experiment [1]; on TXA2 receptor) were 88 nM and 18.6 nM, respectively.

In the case of `O=C(O)COc1cccc2c(CCSC(c3ccccc3)c3ccccc3)c(CO)oc12` [Example 83, (2-hydroxymethyl-3-(2-(diphenylmethylthio)ethyl)benzofuran-7-yloxy)acetic acid], the IC50 was determined as 460 nM in experiment [1] and 3300 nM in experiment [2]. As for `Cc1oc2c(OCC(=O)O)cccc2c1CNS(=O)(=O)CCCc1ccccc1` [Example 17, (3-(((3-phenylpropyl)sulfonylamino)methyl)-2-methylbenzofuran-7-yloxy)acetic acid], the half-maximal inhibitory concentration (IC50) in experiment [1] was 140 nM; on TXA2 receptor, 1.92 nM. The matching figures for `Cc1oc2c(OCC(=O)O)cccc2c1CCNS(=O)(=O)CCc1ccccc1` [Example 25, (3-(2-(2-phenylethylsulfonylamino)ethyl)-2-methylbenzofuran-7-yloxy)acetic acid]: 140 nM and 4.79 nM.

On to `Cc1oc2c(OCC(=O)O)cccc2c1CCON=C(c1ccccc1)c1ccccc1` [Example 35, (3-(2-(diphenylmethyleneaminoxy)ethyl)-2-methylbenzofuran-7-yloxy)acetic acid], for which the values for the IC50 in experiment [1] and in experiment [2] were 4500 nM and 7800 nM, respectively.

As to `O=C(O)COc1cccc2c1ccn2CCSC(c1ccccc1)c1ccccc1` [Example 112, (1-(2-(diphenylmethylthio)ethyl)indole-4-yloxy)acetate], the figures for the concentration for half-maximal inhibition (IC50) in experiment [1] and in experiment [2] were 840 nM and 4500 nM, respectively.

Take `Cc1oc2c(OCC(=O)O)cccc2c1CCSC(c1ccccc1)c1ccccc1` [Example 81, (3-(2-(diphenylmethylthio)ethyl)-2-methylbenzofuran-7-yloxy)acetic acid]: the IC50 was found to be 640 nM in experiment [1] and 4500 nM in experiment [2].

For orientation: IC50 means the concentration that inhibits the measured activity by half.
